≈ marks a conversion by molar mass, not a printed value. Read-outs that look alike come from different tables or passages of the source. Bounds are passed on as bounds.

Series [1] in a line: Solubility in gastric juice or intestinal juice model fluid (precipitation method using DMSO). The format is physicochemical. The note with it: room temperature. In outline:
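Dissolved amount (μg/mL) quantified by UV of filtrate versus pre-made calibration curves. Precipitation approach: DMSO solutions spiked into pH 1.2 (JP 1st fluid) or pH 6.8 (JP 2nd fluid) medium, shaken at room temperature for 24 h before insolubles were filtered off.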

Series [2] concerns lipoprotein lipase (LPL) gene. Description: LPL mRNA elevating action (RT-PCR quantification of LPL mRNA in C2Cl2 cells). The format is cell-based, mouse. The note with it: Mus musculus, 24 h, compound 10 μM, ratio relative to the amount of LPL mRNA in cells with DMSO only, read-out: Rate of increase in LPL mRNA. The essentials:
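Read-out is LPL mRNA relative to vehicle (DMSO = 1), measured by reverse transcription and 20-cycle real-time PCR. Cells were the mouse striated-muscle line C2Cl2, treated 24 h with 10 μM compound in DMEM containing 10% FBS.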

Where [3] appears, read: pH 1.2, simulated gastric fluid, kinetic from dmso stock, 1st fluid for Disintegration Test of Japanese Pharmacopoeia (pH: 1.2), read-out: Solubility (μg/mL) 1st fluid.
[4] abbreviates: pH 6.8, kinetic from dmso stock, 2nd fluid for Disintegration Test of Japanese Pharmacopoeia (pH: 6.8), read-out: Solubility (μg/mL) 2nd fluid.

As for `COc1cc(OCc2ncccc2C(F)(F)F)ccc1-c1nc(-c2ccc(F)nc2)[nH]c1Cl` [Example 214], the melting point lay in the range of 143 to 146 °C. Moreover, the solubility at 24 h in series [1] (setting [3]) was above 96 µg/mL. Moreover, the solubility at 24 h in series [1] (setting [4]) was found to be 7.1 µg/mL (≈ 14.8 µM). For the same compound, the fold induction at 10 µM in series [2] turned out to be 3.66.
On to `COc1cc(OCc2cnc(C)cn2)ccc1-c1nc(-c2ccc(F)nc2)[nH]c1Cl` [Example 216], for which the melting point was 208 to 210 °C (dec.). Also, the solubility at 24 h in series [1] (setting [3]) is 84.3 µg/mL (≈ 198 µM). Further, the solubility at 24 h in series [1] (setting [4]) turned out to be 1.8 µg/mL (≈ 4.23 µM). The fold induction at 10 µM in series [2] is 2.62.
With `COCCOc1cc(OCc2ccc(C(F)(F)F)cn2)ccc1-c1nc(-c2ccc(Cl)nc2)[nH]c1Cl` [Example 218], the melting point fell in the range of 170 to 172 °C. Moreover, the solubility at 24 h in series [1] (setting [3]) is 0.4 µg/mL (≈ 0.742 µM). The solubility at 24 h in series [1] (setting [4]) was below 9.6 µg/mL. For the same compound, the fold induction at 10 µM in series [2] came to 1.21.
The matching figures for `COc1cc(-c2nc(-c3ccc(Cl)nc3)[nH]c2Cl)ccc1OCc1cccc(F)n1` [Example 220]: 198 to 201 °C, below 0.3 µg/mL, below 7.9 µg/mL and 2.69.
For `COc1cc(OCc2ncccc2C(F)(F)F)ccc1-c1nc(-c2ccc(Cl)nc2)[nH]c1Cl` [Example 221] the same measures were 182 to 184 °C, 66.5 µg/mL (≈ 134 µM), below 8.8 µg/mL and 3.47.
The compound `COc1cc(OCc2ccc(C(F)(F)F)cn2)ccc1-c1nc(-c2ccc(Cl)nc2)[nH]c1Br` [Example 225] registered a melting point of 186 to 188 °C. Further, in series [1] (setting [3]), the solubility at 24 h was 5.5 µg/mL (≈ 10.2 µM). For the same compound, the solubility at 24 h in series [1] (setting [4]) was 0.9 µg/mL (≈ 1.67 µM). In addition, the fold induction at 10 µM in series [2] came out at 2.8.
For `COc1cc(OCc2cnccn2)ccc1-c1nc(-c2ccc(Cl)nc2)[nH]c1Cl` [Example 230] the same measures were 172 to 174 °C, 7.2 µg/mL (≈ 16.8 µM), below 0.3 µg/mL and 1.58.
Regarding `COc1cc(OCc2ccc(C(F)(F)F)cn2)ccc1-c1nc(-c2ccc(F)nc2)[nH]c1Cl` [Example 233], the melting point is 190 to 193 °C. The solubility at 24 h in series [1] (setting [3]) was 9.9 µg/mL (≈ 20.7 µM). In addition, the solubility at 24 h in series [1] (setting [4]) was 1.1 µg/mL (≈ 2.3 µM). In series [2], the fold induction at 10 µM was determined as 3.87.
The matching figures for `COc1cc(-c2nc(C3CCCCC3)[nH]c2Cl)ccc1OCc1ccc(C(F)(F)F)cn1` [Example 234]: 171 to 175 °C, 92.8 µg/mL (≈ 199 µM), below 0.3 µg/mL and 3.06.
For `COc1cc(OC(C)c2cccc(C(F)(F)F)n2)ccc1-c1[nH]c(-c2ccc(F)nc2)nc1Cl` (centres unmarked) [Example 237] the same measures were 170 to 175 °C, 7.1 µg/mL (≈ 14.4 µM), below 1.8 µg/mL and 2.82.
Compound `COc1cc(OC(C)c2ncc(Br)cc2F)ccc1-c1[nH]c(-c2ccc(F)nc2)nc1Cl` (centres unmarked) [Example 238] came in with a melting point of 173 to 175 °C. The solubility at 24 h in series [1] (setting [3]) is 7.5 µg/mL (≈ 14.4 µM). In addition, the solubility at 24 h in series [1] (setting [4]) is 5.6 µg/mL (≈ 10.7 µM). Besides, the fold induction at 10 µM in series [2] is 2.42.
The matching figures for `COc1cc(OC(C)c2ccc(C(F)(F)F)nc2)ccc1-c1[nH]c(-c2ccc(F)nc2)nc1Cl` (centres unmarked) [Example 239]: 148 to 150 °C, 8.8 µg/mL (≈ 17.9 µM), 15.6 µg/mL (≈ 31.7 µM) and 2.39.
The matching figures for `COc1cc(OCc2ncc(F)cc2F)ccc1-c1[nH]c(-c2ccc(Cl)nc2)nc1Cl` [Example 247]: 187 to 190 °C, 8.4 µg/mL (≈ 18.1 µM), 5.3 µg/mL (≈ 11.4 µM) and 2.25.
On to `COc1cc(OCc2ncccc2C(F)(F)F)ccc1-c1[nH]c(-c2ccc(Cl)nc2)nc1Br` [Example 253], for which the melting point is 176 to 186 °C. Moreover, the solubility at 24 h in series [1] (setting [3]) is 5.9 µg/mL (≈ 10.9 µM). Besides, the solubility at 24 h in series [1] (setting [4]) amounted to 1 µg/mL (≈ 1.85 µM). In addition, in series [2], the fold induction at 10 µM worked out at 2.62.
For `COc1cc(OCc2ncc(C(F)(F)F)cc2F)ccc1-c1[nH]c(-c2ccc(F)nc2)nc1Br` [Example 255] the same measures were 156 to 158 °C, 17.5 µg/mL (≈ 32.3 µM), below 0.4 µg/mL and 3.14.
With `COc1cc(OCc2cnccc2C(F)(F)F)ccc1-c1[nH]c(-c2ccc(F)nc2)nc1Br` [Example 256], the melting point was in the range of 132 to 162 °C. Besides, the solubility at 24 h in series [1] (setting [3]) was 11.4 µg/mL (≈ 21.8 µM). For the same compound, the solubility at 24 h in series [1] (setting [4]) is below 0.4 µg/mL. For the same compound, in series [2], the fold induction at 10 µM is 3.12.
For `COc1cc(OCc2ncc(Cl)cc2Br)ccc1-c1[nH]c(-c2ccc(F)nc2)nc1Cl` [Example 265] the same measures were 195 to 199 °C, 2.2 µg/mL (≈ 4.2 µM), 5.8 µg/mL (≈ 11.1 µM) and 3.36.
Regarding `COc1cc(OCc2ncc(F)cc2F)ccc1-c1[nH]c(-c2ccc(F)nc2)nc1Br` [Example 266], the melting point was 161 to 164 °C. Also, the solubility at 24 h in series [1] (setting [3]) was 64.3 µg/mL (≈ 131 µM). Besides, the solubility at 24 h in series [1] (setting [4]) is 4.6 µg/mL (≈ 9.36 µM). In addition, in series [2], the fold induction at 10 µM turned out to be 2.38.
The matching figures for `COc1cc(OCc2ncc(Cl)cc2F)ccc1-c1[nH]c(-c2ccc(F)nc2)nc1Br` [Example 267]: 175 to 178 °C, 17.7 µg/mL (≈ 34.9 µM), 0.4 µg/mL (≈ 0.788 µM) and 2.66.
The matching figures for `COc1cc(OCc2ncc(Br)cc2F)ccc1-c1[nH]c(-c2ccc(F)nc2)nc1Br` [Example 268]: 179 to 181 °C, 13.8 µg/mL (≈ 25 µM), 6.6 µg/mL (≈ 12 µM) and 2.53.
The compound `COc1cc(OCc2cncc(C(F)(F)F)c2)ccc1-c1[nH]c(-c2ccc(F)nc2)nc1Br` [Example 270] had a melting point of 176 to 179 °C. Besides, in series [1] (setting [3]), the solubility at 24 h is 9.1 µg/mL (≈ 17.4 µM). Further, the solubility at 24 h in series [1] (setting [4]) was below 0.4 µg/mL. For the same compound, the fold induction at 10 µM in series [2] is 3.81.
For `COc1cc(OCc2ncc(Cl)cc2C(F)(F)F)ccc1-c1[nH]c(-c2ccc(F)nc2)nc1Br` [Example 274] the same measures were 167 to 168 °C, 6.7 µg/mL (≈ 12 µM), 0.4 µg/mL (≈ 0.717 µM) and 3.41.
The matching figures for `COc1cc(OCc2ccncc2C(F)(F)F)ccc1-c1[nH]c(-c2ccc(F)nc2)nc1Br` [Example 276]: 199 to 203 °C (dec.), 66.5 µg/mL (≈ 127 µM), 6.7 µg/mL (≈ 12.8 µM) and 2.36.
For `COc1cc(OCc2cncc(C(F)(F)F)c2)ccc1-c1[nH]c(-c2ccc(F)nc2)nc1Cl` [Example 279] the same measures were 188 to 190 °C, 4.1 µg/mL (≈ 8.56 µM), 0.5 µg/mL (≈ 1.04 µM) and 3.63.
Turning to `COc1cc(OCc2ncc(C(F)(F)F)cc2F)ccc1-c1[nH]c(-c2ccc(F)nc2)nc1Cl` [Example 281], the melting point lay in the range of 150 to 152 °C. Besides, the solubility at 24 h in series [1] (setting [3]) was 9.7 µg/mL (≈ 19.5 µM). Also, the solubility at 24 h in series [1] (setting [4]) amounted to 9.3 µg/mL (≈ 18.7 µM). The fold induction at 10 µM in series [2] amounted to 3.36.
In the case of `COc1cc(O[C@H](C)c2ccc(C(F)(F)F)cc2)ccc1-c1[nH]c(-c2ccc(F)nc2)nc1Cl` [Example 290], the melting point lay in the range of 137 to 139 °C. For the same compound, in series [1] (setting [3]), the solubility at 24 h was below 0.3 µg/mL. In addition, in series [1] (setting [4]), the solubility at 24 h stood at 27.6 µg/mL (≈ 56.1 µM). The fold induction at 10 µM in series [2] stood at 2.64.
The matching figures for `COc1cc(OCc2ccc(C(F)(F)F)cn2)ccc1-c1nc(C2CCC(F)(F)CC2)n(CC2CC2)c1Cl` [Example 292]: 144 to 146 °C, above 111 µg/mL, below 9.9 µg/mL and 2.81.
The matching figures for `COc1cc(OCc2ccc(C(F)(F)F)cn2)ccc1-c1nc(-c2ccc(Cl)nc2)n(CC2CC2)c1Cl` [Example 294]: 123 to 126 °C, 104 µg/mL (≈ 189 µM), 2.4 µg/mL (≈ 4.37 µM) and 2.42.
The matching figures for `COc1cc(OCc2ccc(C(F)(F)F)cn2)ccc1-c1c(Cl)nc(-c2ccc(Cl)nc2)n1CC1CC1` [Example 295]: 130 to 132 °C, 18.3 µg/mL (≈ 33.3 µM), 1.1 µg/mL (≈ 2 µM) and 4.06.
On to `COCCn1c(-c2ccc(F)nc2)nc(Cl)c1-c1ccc(OCc2ccc(C(F)(F)F)cn2)cc1OC` [Example 297], for which the melting point lay in the range of 131 to 136 °C. The solubility at 24 h in series [1] (setting [3]) is 89.8 µg/mL (≈ 167 µM). Further, in series [1] (setting [4]), the solubility at 24 h is 7 µg/mL (≈ 13 µM). In addition, the fold induction at 10 µM in series [2] stood at 2.76.
For `COc1cc(OCc2ccc(C(F)(F)F)cn2)ccc1-c1c(Br)nc(-c2ccc(Cl)nc2)n1C` [Example 301] the same measures were 125 to 127 °C, 15.1 µg/mL (≈ 27.3 µM), below 0.4 µg/mL and 2.99.
As to `COc1cc(OCc2ccc(C(F)(F)F)cn2)ccc1-c1nc(-c2ccc(F)nc2)n(C)c1Br` [Example 302], the melting point fell in the range of 179 to 181 °C. Also, the solubility at 24 h in series [1] (setting [3]) is above 107 µg/mL. Besides, the solubility at 24 h in series [1] (setting [4]) was below 0.4 µg/mL. Further, in series [2], the fold induction at 10 µM stood at 2.44.

One may read the melting point as the temperature of the solid-liquid transition.

Source of the values: patent US10570117B2, “Phenylimidazole compound” (Otsuka Pharmaceutical Factory, Inc., priority 2015, dated 2020).
